One series concerns OVCAR8 cells. Description: Active mitochondrial mass (MitoTracker Red CMXRos) in OVCAR8 cells. The format is cell-based. The source says:
FIG. 4, panel A illustrates a histogram of cell cycle distribution of propidium iodide (PI)-stained cells. […] FIG. 4, panel C illustrates the effect of SU093 on cell cycle and cell death regulators analyzed by immunostaining. FIG. 4, panel D illustrates mitochondria stained with MitoTracker Red CMXRos and visualized by confocal microscopy indicating mitochondrial dysfunction in OVCAR8 cells. FIG. 4, panel E illustrates the effect of SU093 on active mitochondrial mass in OVCAR8 cells.
Furthermore, OVCAR8 cells with overexpressed (OV) and knockdown (KD) of GBP1 gene were created (FIG. 3, panel D) and cell viability experiments were performed on GBP1-WT (wild-type), GBP1-OV and GBP1-KD OVCAR8 cells at different doses of SU093.

A further series relates to GBP1. Put plainly: cell-based reporter assay, OVCAR-8 stably transfected with GBP-1-luciferase. The settings on record: OVCAR-8 GBP-1-luciferase. The source says:
Exemplary compounds (1)-(17) and previously identified compound SU093 (Andreoli, M., Persico, M.; Kumar, A.; Orteca, N.; Kumar, V.; Pepe, A.; Mahalingam, S.; Alegria, A. E.; Petrella, L.; Sevciunaite, L.; Camperchioli, A.; Mariani, M.; Di Dato, A.; Novellino, E.; Scambia, G., Malhotra, S. V.; Ferlini, C.; Fattorusso, C., Identification of the First Inhibitor of the GBP1:PIM1 Interaction. Implications for the Development of a New Class of Anticancer Agents against Paclitaxel Resistant Cancer Cells. Journal of Medicinal Chemistry 2014, 57 (19), 7916-7932) were tested for GBP1 inhibition using a cell-based reporter assay in ovarian cancer cell line OVCAR-8 stably transfected with GBP-1-luciferase. Tables 1 and 2 below outlines the percentage of GBP1 expression in OVCAR-8 cells for each of the 17 compounds tested.

Series [1] deals with Luciferase-tagged OVCAR8 cells. Put plainly: Viability of luciferase-tagged OVCAR8 cells in combination with radiation or paclitaxel. The format is cell-based. As to the method: FIG. 5, panels A-E: illustrates the sensitizing effect of SU093 on the viability of luciferase-tagged OVCAR8 cells in combination with radiation and chemotherapy treatment. FIG. 5, panel A graphs cells that were pre-treated with 0, 0.5 and 1 nM SU093 for 24 h followed by 0, 5 & 10 Gy radiation treatment and incubated for 96 h. FIG. 5, panel B illustrates cell cycle analysis of SU093 and radiation combination treatment in OVCAR8. FIG. 5, panel C illustrates the effect of SU093 on OVCAR8 cells in hypoxic condition (0.5% O2) FIG. 5, panel D graphs hypoxic cells that were pre-treated with SU093 for 24 h followed by 5 and 10 Gy radiation.
It has been previously established that GBP1 expression has a definitive role in the resistance towards radiation therapy and taxane-based chemotherapy. The GBP1 inhibitor SU093 was tested in combination with radiation and paclitaxel (a well known taxane-based chemotherapeutic drug) for its potential in overcoming radiation therapy and taxane resistance. […] A cell cycle analysis experiment for radiation was performed with SU093 and combination treatment (FIG. 5, panel B). […] One of the mechanisms through which a drug can sensitize the effect of radiation is its ability to block G2/M phase of the cell cycle (Leonard, C. E.; Chan, D. C.; Chou, T. C.; Kumar, R.; Bunn, P. A., Paclitaxel enhances in vitro radiosensitivity of squamous carcinoma cell lines of the head and neck. Cancer Research 1996, 56 (22), 5198-5204). G2/M is the most radiosensitive phase in the cell cycle and arresting the cell population in this phase would likely sensitize them to the next cycle of radiation and enhance cell death (Pawlik, T. M.; Keyomarsi, K., Role of cell cycle in mediating sensitivity to radiotherapy. International Journal of Radiation Oncology Biology Physics 2004, 59 (4), 928-942; Nambiar, D. K.; Rajamani, P.; Deep, G.; Jain, A. K.; Agarwal, R.; Singh, R. P., Silibinin Preferentially Radiosensitizes Prostate Cancer by Inhibiting DNA Repair Signaling. Molecular Cancer Therapeutics 2015, 14 (12), 2722-2734). […] Bearing in mind that solid tumors create a hypoxic microenvironment, these findings provided a very compelling case for the clinical application of the subject GBP1 inhibitors as a treatment for re-sensitizing radiation therapy in refractory cancers.
The cytotoxic effect of SU093 and paclitaxel combination treatment was also studied (FIG. 5, panel E).

“Also recorded” adds a separate entry of the source.

For `COc1ccc2c(c1)N(CCO)C1=C(C(=O)OC1)C2c1ccccc1` (stereo not shown) [SU093], the active mitochondrial mass result with OVCAR8 cells was “significantly diminished active mitochondrial mass”. In addition, in the series with GBP1 (5 nM), the “% GBP1 expression OVCAR-8 @5 nM” value came out at 60.3%. The “% GBP1 expression OVCAR-8 @10 nM” value in the series with GBP1 (10 nM) came to 51.0%. Moreover, in series [1] (5 and 10 Gy radiation), the “cell viability, pretreatment with SU093 then radiation” value is “significant synergistic effect”. Moreover, the “cytotoxicity in hypoxic conditions” value in series [1] (OVCAR8, hypoxic (0.5% O2)) is “intrinsic cytotoxic effects”. Besides, the “cytotoxic effect of SU093 and paclitaxel combination” value in series [1] (SU093 0.5 nM 24 h then paclitaxel 1, 5, 10 nM) is “synergistic cytotoxic effect; also recorded: enhanced cytotoxic effect as compared to paclitaxel alone”. Also, in series [1] (hypoxic OVCAR8, SU093 plus 5 and 10 Gy), the “cell death, co-treatment with radiotherapy in hypoxia” value is on record as “significantly potentiated cell death”.

These data come from patent publication US11771692B2, “N-hydroxyethyl didehydroazapodophyllotoxins as GBP1 inhibitors and methods of overcoming treatment resistance in cancer” (The Board of Trustees of the Leland Stanford Junior …, priority 2018, dated 2023).
